Assay results from patent publication US10173982B2, “Picolinamides as fungicides” (Dow AgroSciences LLC, priority 2016, dated 2019).
Like-named read-outs stand apart in the source and are kept apart here.

Key:
[1] = system: Zymoseptoria tritici; experiment: Fungicidal activity: leaf blotch of wheat (SEPTTR), percent disease control on wheat seedlings; type: in vivo; details: for pest or weed control at 121.5 g/ha / pest or weed control at 100 ppm: Zymoseptoria tritici; for pest or weed control at 121.5 g/ha: LV (low volume) activity at 121.5 g/H; for pest or weed control at 100 ppm / SEPTTR 1DP disease control rating / SEPTTR 3DC disease control rating: HV (high volume) activity at 100 ppm
Procedure: Technical grades of materials were dissolved in acetone, which were then mixed with nine volumes of water containing 110 ppm Triton X-100. The fungicide solutions were applied onto wheat seedlings using an automated booth sprayer to run-off. All sprayed plants were allowed to air dry prior to further handling. All fungicides were evaluated using the aforementioned method for their activity vs. all target diseases, unless stated otherwise. Wheat leaf blotch and brown rust activity were also evaluated using track spray applications, in which case the fungicides were formulated as EC formulations, containing 0.1% Trycol 5941 in the spray solutions. Wheat plants (variety Yuma) were grown from seed in a greenhouse in 50% mineral soil/50% soil-less Metro mix until the first leaf was fully emerged, with 7-10 seedlings per pot. These plants were inoculated with an aqueous spore suspension of Zymoseptoria tritici either prior to or after fungicide treatments. After inoculation the plants were kept in 100% relative humidity (one day in a dark dew chamber followed by two to three days in a lighted dew chamber at 20° C.) to permit spores to germinate and infect the leaf. The plants were then transferred to a greenhouse set at 20° C. for disease to develop. When disease symptoms were fully expressed on the 1st leaves of untreated plants, infection levels were assessed on a scale of 0 to 100 percent disease severity. Percent disease control was calculated using the ratio of disease severity on treated plants relative to untreated plants.

[2] = system: Puccinia triticina; experiment: Fungicidal activity: wheat brown rust (PUCCRT), percent disease control on wheat seedlings; type: in vivo; details: for pest or weed control at 121.5 g/ha / pest or weed control at 100 ppm: Puccinia triticina; for pest or weed control at 121.5 g/ha: LV (low volume) activity at 121.5 g/H; for pest or weed control at 100 ppm / PUCCRT 3DC disease control rating / PUCCRT 1DP disease control rating: HV (high volume) activity at 100 ppm
Procedure: Technical grades of materials were dissolved in acetone, which were then mixed with nine volumes of water containing 110 ppm Triton X-100. The fungicide solutions were applied onto wheat seedlings using an automated booth sprayer to run-off. All sprayed plants were allowed to air dry prior to further handling. All fungicides were evaluated using the aforementioned method for their activity vs. all target diseases, unless stated otherwise. Wheat leaf blotch and brown rust activity were also evaluated using track spray applications, in which case the fungicides were formulated as EC formulations, containing 0.1% Trycol 5941 in the spray solutions. Wheat plants (variety Yuma) were grown from seed in a greenhouse in 50% mineral soil/50% soil-less Metro mix until the first leaf was fully emerged, with 7-10 seedlings per pot. These plants were inoculated with an aqueous spore suspension of Puccinia triticina either prior to or after fungicide treatments. After inoculation the plants were kept in a dark dew room at 22° C. with 100% relative humidity overnight to permit spores to germinate and infect the leaf. The plants were then transferred to a greenhouse set at 24° C. for disease to develop. Fungicide formulation, application and disease assessment followed the procedures as described in the Example A. Results of the evaluations are shown below in Table 4.

[3] = 24 h, 1 Day Protectant, read-out: SEPTTR 1DP disease control rating
[4] = 72 h, 3 Day Curative, read-out: SEPTTR 3DC disease control rating
[5] = 24 h, 1 Day Protectant, read-out: PUCCRT 1DP disease control rating
[6] = 72 h, 3 Day Curative, read-out: PUCCRT 3DC disease control rating

SMILES | pest or weed control at 100 ppm [1, 3] | pest or weed control at 100 ppm [1, 4] | pest or weed control at 100 ppm [2, 5] | pest or weed control at 100 ppm [2, 6] | also measured
COc1ccnc(C(=O)N[C@@H](C)C(=O)O[C@@H](C)[C@H](Sc2ccc(F)cc2)c2ccc(F)cc2C)c1OC(C)=O [Compound 75] |  |  |  |  | pest or weed control at 121.5 g/ha [1, 3]: > 80%; pest or weed control at 121.5 g/ha [1, 4]: > 80%; pest or weed control at 121.5 g/ha [2, 5]: ≤ 80%; pest or weed control at 121.5 g/ha [2, 6]: ≤ 0%
COc1ccnc(C(=O)N[C@@H](C)C(=O)O[C@@H](C)[C@H](SCc2ccccc2)c2ccccc2)c1O [Compound 45] | ≤ 0% | ≤ 80% | ≤ 80% | ≤ 80% | 
COc1ccnc(C(=O)N[C@@H](C)C(=O)O[C@@H](C)[C@H](Sc2ccc(C)cc2)c2ccccc2)c1O [Compound 36] | ≤ 80% | ≤ 80% | > 80% | > 80% | 
COc1ccnc(C(=O)N[C@@H](C)C(=O)O[C@@H](C)[C@H](Sc2ccc(F)cc2)c2ccccc2)c1O [Compound 37] | ≤ 0% | ≤ 80% | ≤ 80% | ≤ 80% | 
COc1ccnc(C(=O)N[C@@H](C)C(=O)O[C@@H](C)[C@H](Sc2ccccc2)c2ccc(F)cc2C)c1O [Compound 51] | > 80% | > 80% | > 80% | ≤ 80% | 
COc1ccnc(C(=O)N[C@@H](C)C(=O)O[C@@H](C)[C@H](SC(C)C)c2ccccc2)c1O [Compound 46] | ≤ 0% | > 80% | ≤ 80% | ≤ 80% | 
CCc1cc(F)ccc1[C@@H](Sc1ccccc1)[C@H](C)OC(=O)[C@H](C)NC(=O)c1nccc(OC)c1O [Compound 40] | > 80% | > 80% | > 80% |  | PUCCRT 3DC disease control rating ([2]; 3 Day Curative): A (>80)
COc1ccnc(C(=O)N[C@@H](C)C(=O)O[C@@H](C)[C@H](Sc2ccccc2)c2ccc(F)cc2)c1OC(C)=O [Compound 61] |  |  |  |  | pest or weed control at 121.5 g/ha [1, 3]: ≤ 80%; pest or weed control at 121.5 g/ha [1, 4]: ≤ 0%; pest or weed control at 121.5 g/ha [2, 5]: > 80%; pest or weed control at 121.5 g/ha [2, 6]: ≤ 80%
CCc1cc(F)ccc1[C@@H](Sc1ccccc1)[C@H](C)OC(=O)[C@H](C)NC(=O)c1nccc(OC)c1O [Compound 57] |  |  |  |  | SEPTTR 1DP disease control rating ([1]; 1 Day Protectant): B (≤80); SEPTTR 3DC disease control rating ([1]; 3 Day Curative): A (>80); PUCCRT 1DP disease control rating ([2]; 1 Day Protectant): A (>80); PUCCRT 3DC disease control rating ([2]; 3 Day Curative): D (≤0)
COc1ccnc(C(=O)N[C@@H](C)C(=O)O[C@@H](C)[C@@H](c2ccccc2)[S+]([O-])Cc2ccccc2)c1OC(C)=O (stereo partly drawn) [Compound 74] |  |  |  |  | pest or weed control at 121.5 g/ha [1, 3]: ≤ 0%; pest or weed control at 121.5 g/ha [1, 4]: ≤ 0%; pest or weed control at 121.5 g/ha [2, 5]: ≤ 0%; pest or weed control at 121.5 g/ha [2, 6]: ≤ 0%
COc1ccnc(C(=O)N[C@@H](C)C(=O)O[C@@H](C)[C@H](Sc2ccc(F)cc2C)c2ccc(F)cc2C)c1O [Compound 49] | > 80% | > 80% | > 80% | ≤ 80% | 
COc1ccnc(C(=O)N[C@@H](C)C(=O)O[C@@H](C)[C@H](Sc2ccccc2)c2ccccc2)c1O [Compound 54] | ≤ 80% | > 80% | > 80% | ≤ 80% | 
COc1ccnc(C(=O)N[C@@H](C)C(=O)O[C@@H](C)[C@H](Sc2ccc(C)cc2C)c2ccccc2)c1O [Compound 44] | > 80% | ≤ 80% | > 80% | ≤ 80% | 
COc1ccnc(C(=O)N[C@@H](C)C(=O)O[C@@H](C)[C@H](SCC(C)C)c2ccccc2)c1O [Compound 47] | ≤ 0% | > 80% | ≤ 80% | ≤ 80% | 
COc1ccnc(C(=O)N[C@@H](C)C(=O)O[C@@H](C)[C@@H](c2ccccc2)[S+]([O-])c2ccc(F)cc2)c1O (stereo partly drawn) [Compound 42] | ≤ 0% | ≤ 80% | ≤ 0% | ≤ 0% | 
COc1ccnc(C(=O)N[C@@H](C)C(=O)O[C@@H](C)[C@H](Sc2cccc(Cl)c2)c2ccccc2)c1O [Compound 35] | ≤ 80% | ≤ 80% | > 80% | > 80% | 
COc1ccnc(C(=O)N[C@@H](C)C(=O)O[C@@H](C)[C@@H](c2ccccc2)S(=O)(=O)c2ccc(F)cc2)c1O [Compound 41] | ≤ 80% | ≤ 80% | ≤ 0% | ≤ 0% | 
COc1ccnc(C(=O)N[C@@H](C)C(=O)O[C@@H](C)[C@H](Sc2ccc(C(F)(F)F)cn2)c2ccccc2)c1O [Compound 52] | ≤ 0% | ≤ 80% | ≤ 80% | ≤ 80% | 
COc1ccnc(C(=O)N[C@@H](C)C(=O)O[C@@H](C)[C@H](Sc2ccc(F)cc2C)c2ccccc2)c1OC(C)=O [Compound 60] |  |  |  |  | pest or weed control at 121.5 g/ha [1, 3]: > 80%; pest or weed control at 121.5 g/ha [1, 4]: ≤ 0%; pest or weed control at 121.5 g/ha [2, 5]: > 80%; pest or weed control at 121.5 g/ha [2, 6]: ≤ 80%
CCc1cc(F)ccc1[C@@H](Sc1ccccc1)[C@H](C)OC(=O)[C@H](C)NC(=O)c1nccc(OC)c1OC(C)=O [Compound 59] |  |  |  |  | pest or weed control at 121.5 g/ha [1, 3]: ≤ 80%; pest or weed control at 121.5 g/ha [1, 4]: ≤ 80%; pest or weed control at 121.5 g/ha [2, 5]: > 80%; pest or weed control at 121.5 g/ha [2, 6]: ≤ 80%
COc1ccnc(C(=O)N[C@@H](C)C(=O)O[C@@H](C)[C@@H](c2ccccc2)S(=O)(=O)Cc2ccccc2)c1O [Compound 48] | ≤ 80% | ≤ 80% | ≤ 0% | ≤ 0% | 
COc1ccnc(C(=O)N[C@@H](C)C(=O)O[C@@H](C)[C@H](Sc2ccccc2)c2ccc(C)cc2)c1O [Compound 53] | > 80% | > 80% | > 80% | > 80% | 
COc1ccnc(C(=O)N[C@@H](C)C(=O)O[C@@H](C)[C@H](Sc2ccccc2)c2ccc(F)cc2)c1O [Compound 39] | > 80% | > 80% | > 80% | > 80% | 
COc1ccnc(C(=O)N[C@@H](C)C(=O)O[C@@H](C)[C@H](Sc2ccc(F)cc2C)c2ccccc2)c1O [Compound 38] | > 80% | > 80% | > 80% |  | PUCCRT 3DC disease control rating ([2]; 3 Day Curative): A (>80)
COc1ccnc(C(=O)N[C@@H](C)C(=O)O[C@@H](C)[C@H](Sc2ccc(F)cc2C)c2ccccc2)c1O [Compound 55] |  |  |  |  | SEPTTR 1DP disease control rating ([1]; 1 Day Protectant): A (>80); SEPTTR 3DC disease control rating ([1]; 3 Day Curative): B (≤80); PUCCRT 1DP disease control rating ([2]; 1 Day Protectant): A (>80); PUCCRT 3DC disease control rating ([2]; 3 Day Curative): D (≤0)
COc1ccnc(C(=O)N[C@@H](C)C(=O)O[C@@H](C)[C@@H](c2ccccc2)S(=O)(=O)Cc2ccccc2)c1OC(C)=O [Compound 72] |  |  |  |  | pest or weed control at 121.5 g/ha [1, 3]: ≤ 80%; pest or weed control at 121.5 g/ha [1, 4]: ≤ 0%; pest or weed control at 121.5 g/ha [2, 5]: ≤ 0%; pest or weed control at 121.5 g/ha [2, 6]: ≤ 0%
COc1ccnc(C(=O)N[C@@H](C)C(=O)O[C@@H](C)[C@@H](c2ccccc2)[S+]([O-])c2ccc(C)cc2C)c1OC(C)=O (stereo partly drawn) [Compound 73] |  |  |  |  | pest or weed control at 121.5 g/ha [1, 3]: ≤ 80%; pest or weed control at 121.5 g/ha [1, 4]: ≤ 0%; pest or weed control at 121.5 g/ha [2, 5]: ≤ 0%; pest or weed control at 121.5 g/ha [2, 6]: ≤ 0%
